Assay results: PubChem BioAssay (NCI)
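Growth conditions: 96-well plates. Treatment: test compound, 48 hours, 5 concentrations. Analysis: linear interpolation between bracketing concentrations; unreached endpoints set to highest concentration. TGI denotes the concentration required for complete inhibition of growth.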 Where a SMILES comes first, the peptide text is derived from it.

How the values were obtained:
Assay in all cases: NCI tumour cell line growth inhibition, 48 h
[1] = tested on: HOP-62 NSCLC
[2] = tested on: HOP-92 NSCLC
[3] = tested on: LOX IMVI melanoma
[4] = tested on: NCI-H23 lung
[5] = tested on: SF-268 CNS
[6] = tested on: SF-295 CNS
[7] = tested on: SK-MEL-5 melanoma
[8] = tested on: SW-620 colon
[9] = tested on: UACC-257 melanoma
[10] = tested on: UO-31 renal
[11] = tested on: CAKI-1 renal
[12] = tested on: HCC-2998 colon

Structure (SMILES)	TGI [1] [µM]	TGI [2] [µM]	TGI [3] [µM]	TGI [4] [µM]	TGI [5] [µM]	TGI [6] [µM]	TGI [7] [µM]	TGI [8] [µM]	TGI [9] [µM]	TGI [10] [µM]	TGI [11] [µM]	TGI [12] [µM]
O=C(CN=C(CN(c1ccccc1)c1ccccc1)Oc1ccc(Cl)cc1Cl)n1ccnc1	> 100	> 100	> 100	> 100	> 100	> 100	> 100	> 100	> 100	> 100		
CCC(C)C(NC(=O)C(CC(C)C)NC(=O)CNC(=O)C(NC(=O)C1CCCN1C(=O)C(CC(C)C)NC(=O)C(N)Cc1ccccc1)C(C)CC)C(=O)NC(CC(C)C)C(N)=O (stereo not given) (H-FLPIGLIL-NH2; configuration not given here)	> 75	> 75	> 75	> 75	> 75	> 75	> 75	> 75	> 75	> 75	> 75	
CCCCC1(O)CC2CC1C(C)C2(C)C (stereo not given)	> 100		> 100	> 100	> 100	> 100	> 100	> 100	> 100	> 100	> 100	> 100
Cn1cc(-c2nnc(-c3ccc(Cl)cc3)[nH]c2=O)c2ccccc21	> 75.8	> 100	> 100	> 100	> 100	> 28.3	> 43.7	> 64.6	> 24.3	> 47	> 100	
CCCCCCCCCCOCCOCCOCCOCCCCC(O)CCCCCCCC1=C[C@H](C)OC1=O (stereo not given in full)		29.6	28	16.6	22.9	21.5	22.2	29.5	19.8	18.3	32.2	27
O=C(O)CCN(CCCN(CCC(=O)O)CCC(=O)O)CCC(=O)O	> 100	> 100	> 100	> 100	> 100	> 100	> 100	> 100			> 100	> 100
CC(C(=O)n1ccnc1)N1c2ccccc2Sc2ccccc21 (stereo not given)	> 100	79.9	> 100	> 100	> 100	> 100	> 100	> 100	> 100	> 100		
NC(=O)Cn1c(=O)oc2cc(C(=O)CN3CCOCC3)ccc21	> 100		> 100		> 100	> 100	> 100	> 100			> 100	
CCOC(=O)C(NC(=O)CC)(Nc1ccc(F)cc1F)C(F)(F)F (stereo not given)			> 100	> 100	> 100		> 100	> 100	> 100	> 100		> 100
Nc1cc(Cl)ccc1SSc1ccc(Cl)cc1N	29.4	> 100	14.2	20.4	83.5	25.6	27	15	41.5	22.1	35.7	
O=C(O)C12CCC(CC1=O)C2 (stereo not given)	> 100	> 100	> 100	> 100	> 100	> 100	> 100	> 100	> 100	> 100	> 100	
C(#CC1(Nc2ccccc2)CCN(Cc2ccccc2)CC1)C1(Nc2ccccc2)CCN(Cc2ccccc2)CC1	40.7	33.9	38.7	> 56.2	47.8	> 56.2	18.3	> 56.2		> 84.7	44.5	> 100
Cc1cc2c(cc1Cl)SC(NNC1=NCCN1)=NS2(=O)=O	> 10		> 10	> 10	> 10	> 10	> 10	> 10	> 10	> 10	> 10	> 10
CCOC(=O)N/N=C(\CC)OCC	> 100		> 100		> 100	> 100	> 100		> 100	> 100	> 100	> 100
COC(=O)/N=[N+](\[O-])C(c1ccccc1)c1ccccc1			> 100	> 100	> 100		> 100	> 100	> 100	70.9	> 100	> 100
S=C1CC(c2ccccc2)Sc2cc(Cl)ccc2N1 (stereo not given)	18.4		> 100	22.2	24.7	12.6	29.4		> 100	> 100	29	
